Target: MAPK14 (UniProt Q16539)
Sequence (Q16539 whole entry, looked up): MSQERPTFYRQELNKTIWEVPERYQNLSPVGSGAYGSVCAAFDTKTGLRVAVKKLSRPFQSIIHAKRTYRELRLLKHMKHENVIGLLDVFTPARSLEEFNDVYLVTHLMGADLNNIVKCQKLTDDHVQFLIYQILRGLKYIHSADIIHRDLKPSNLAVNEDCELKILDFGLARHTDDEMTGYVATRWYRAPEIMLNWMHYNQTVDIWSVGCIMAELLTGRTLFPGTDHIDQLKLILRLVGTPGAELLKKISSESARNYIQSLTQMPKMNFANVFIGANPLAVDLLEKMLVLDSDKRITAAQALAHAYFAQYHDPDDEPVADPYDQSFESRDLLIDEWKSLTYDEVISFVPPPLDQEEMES

IC50 [µM]	Compound
< 50	CC[C@H](CO)n1cnc(-c2ccc(F)cc2)c1-c1ccnc(Oc2ccc(C)cc2)n1
< 50	CC[C@@H](CO)n1cnc(-c2ccc(F)cc2)c1-c1ccnc(Oc2ccc(C)cc2)n1
< 50	Cc1ccc(Oc2nccc(-c3c(-c4ccc(F)cc4)ncn3C(CO)CO)n2)cc1
< 50	OCC(CO)n1cnc(-c2ccc(F)cc2)c1-c1ccnc(Oc2ccccc2)n1
< 50	OC[C@H](c1ccccc1)n1cnc(-c2ccc(F)cc2)c1-c1ccnc(Oc2ccccc2)n1
< 50	Cc1ccc(Oc2nccc(-c3c(-c4ccc(F)cc4)ncn3[C@@H](C)CO)n2)cc1
< 50	CC[C@H](CO)n1cnc(-c2ccc(F)cc2)c1-c1ccnc(Oc2ccccc2)n1
< 50	OCC(CO)n1cnc(-c2ccc(F)cc2)c1-c1ccnc(Oc2ccc(F)cc2)n1
< 50	CC[C@@H](CO)n1cnc(-c2ccc(F)cc2)c1-c1ccnc(Oc2ccccc2)n1
< 50	CC[C@@H](CO)n1cnc(-c2ccc(F)cc2)c1-c1ccnc(Oc2ccc(Cl)cc2)n1
< 50	CC[C@H](CO)n1cnc(-c2ccc(F)cc2)c1-c1ccnc(Oc2ccc(Cl)cc2)n1
< 50	C[C@@H](CO)n1cnc(-c2ccc(F)cc2)c1-c1ccnc(Oc2ccc(F)cc2)n1
< 50	OC[C@@H](c1ccccc1)n1cnc(-c2ccc(F)cc2)c1-c1ccnc(Oc2ccccc2)n1
< 50	C[C@H](CCN1CCOCC1)n1cnc(-c2ccc(F)cc2)c1-c1ccnc(Oc2ccccc2)n1
< 50	C[C@@H](CO)n1cnc(-c2ccc(F)cc2)c1-c1ccnc(Oc2ccc(Cl)cc2)n1
< 50	C[C@H](CO)n1cnc(-c2ccc(F)cc2)c1-c1ccnc(Oc2ccc(F)cc2)n1
